Measurements reported in PMC11855478, “Bicyclic N,S-Acetals Containing Fused Cysteine-Amide System as New Heterocyclic Class Targeting Human Farnesyltransferase (FTase-h)” (International Journal of Molecular Sciences, 2025).

Experiments:
[1] = target: human farnesyltransferase (FTase) (Homo sapiens, UniProt P49354+P49356); assay: FTase inhibitory assay (fluorescence, Dansyl-GCVLS); format: biochemical; conditions: for IC50: human FTase in vitro; for % FTI: inhibition of human FTase at 100 μM of tested compound, mean of two experiments
Method: With 40 new products in hand, the determination of their inhibitory activity on human farnesyl-transferase (FTase) in vitro was first undertaken. Dimethyl sulfoxide (DMSO) was used as the negative control, and Chaetomellic acid A was the positive reference in all assays. At the outset, and in order to select only significant results, products with an inhibitory power greater than 60% at an initial screening concentration of 100 µM were retained for the determination of their IC50 and, therefore, for further discussion. Moreover, given the number of products tested, they are grouped into three subfamilies on the basis of the degree of the sulphur atom oxidation (series of sulfides, series of sulfoxides, and series of sulfones), and the results obtained are grouped in Table 1, Table 2 and Table 3.
3.3. FTase Inhibitory Assay
Assays were realized in 96-well plates, prepared with a Biomek NKMC and a Biomek 3000 from Beckman Coulter, and read on a Wallac Victor fluorimeter from PerkinElmer. Per well, 20 µL of farnesyl pyrophosphate (10 μM) was added to 180 µL of a solution containing 2 µL of varied concentrations of potential inhibitors (dissolved in DMSO) and 178 μL of a solution composed of 10 μL of partially purified recombinant human FTase (15 µg mL^−1) and 1.0 µL of Dansyl-GCVLS peptide (in the following buffer: 5.6 mM DTT, 5.6 mM MgCl2, 12 μM ZnCl2 and 0.2% (w/v) octyl-β-D-glucopyranoside, 52 mM Tris/HCl, pH 7.5). Fluorescence was recorded for 15 min (0.7 s per well, 20 repeats) at 30 °C with an excitation filter at 340 nm and an emission filter of 486 nm. Each measurement was reproduced twice, in duplicate. The kinetic experiments were realized under the same conditions, either with FPP as varied substrate with a constant concentration of Dns-GCVLS of 2.5 μM or with Dns-GCVLS as varied substrate with a constant concentration of FPP of 10 μM. Non-linear regressions were performed using the Excel software.

[2] = test system: panel of 60 human cancer cell lines; assay: NCI 60 cell panel one dose screen (whole panel); format: cell-based; design: Delta (One Dose Mean Graph): unit not given here; conditions: 1.00E-5 Molar one dose; for Range (One Dose Mean Graph): in % (unit assumed); for Mean Growth Percent: mean over tested cell lines
Method: (§1) 3.4. Cell Proliferation Assay
Selected compounds were tested on a panel of 60 human cancer cell lines at the National Cancer Institute (NCI), Germantown, MD, USA. The cytotoxicity studies were conducted using a 48 h exposure protocol using the sulfo-rhodamine B assay. […]
X. NCI One Dose Mean Graph of sulfides 4a(A -J) and 4b(A-J)
The entire series of sulfides regrouping twenty synthesized FTI-candidates (4aA-J, 4bA-J) were selected by the National Cancer Institute (NCI) for evaluation of their antiproliferative activity against 60 cancer cell lines (see the followings twenty pages for full evaluation reports). […]
inhibiting 36% of the NCI-H522 cells. Such difference between IC50 on human FTase in the nanomolar range and IC50 on cancer cell growth in the micromolar range is characteristic to potent FTIs and was reported previously on different series of compounds (see for example ref erence in the references part […]
Of interest, none of the tested compounds at a high single dose (10 µM) in the full NCI 60 cell panel has shown a cytotoxic profile. […]
inhibitory potential on FTase raise good hope for further investigation of these series as agents fighting

MOLT-4 (Leukemia) = assay: NCI one dose, MOLT-4; format: cell-based, human; conditions: MOLT-4, 1.00E-5 Molar one dose
Method: as §1
(§2) Selected compounds were tested on a panel of 60 human cancer cell lines at the National Cancer Institute (NCI), Germantown, MD, USA. The cytotoxicity studies were conducted using a 48 h exposure protocol using the sulfo-rhodamine B assay.

[3] = test system: HOP-62 (Non-Small Cell Lung Cancer); assay: NCI one dose, HOP-62; format: cell-based, human; conditions: HOP-62, 1.00E-5 Molar one dose
Method: as §1, §2

[4] = test system: NCI-H522 non-small cell lung cancer cells; assay: NCI cell proliferation, NCI-H522; format: cell-based, human; conditions: for inhibition at 10 µM: Homo sapiens, NCI-H522, read-out: % Cancer cell growth Inhibition (NCI-H522); for Growth Percent: NCI-H522, 1.00E-5 Molar one dose
Method: as §1, §2

HCT-15 (Colon Cancer) = assay: NCI one dose, HCT-15; format: cell-based, human; conditions: HCT-15, 1.00E-5 Molar one dose
Method: as §1, §2

HT29 (Colon Cancer) = assay: NCI one dose, HT29; format: cell-based, human; conditions: HT29, 1.00E-5 Molar one dose
Method: as §1, §2

SF-539 (CNS Cancer) = assay: NCI one dose, SF-539; format: cell-based, human; conditions: SF-539, 1.00E-5 Molar one dose
Method: as §1, §2

SNB-19 (CNS Cancer) = assay: NCI one dose, SNB-19; format: cell-based, human; conditions: SNB-19, 1.00E-5 Molar one dose
Method: as §1, §2

SK-MEL-5 (Melanoma) = assay: NCI one dose, SK-MEL-5; format: cell-based, human; conditions: SK-MEL-5, 1.00E-5 Molar one dose
Method: as §1, §2

UACC-257 melanoma cells = assay: NCI one dose, UACC-257; format: cell-based, human; conditions: UACC-257, 1.00E-5 Molar one dose
Method: as §1, §2

UACC-62 (Melanoma) = assay: NCI one dose, UACC-62; format: cell-based, human; conditions: UACC-62, 1.00E-5 Molar one dose
Method: as §1, §2

OVCAR-3 (Ovarian Cancer) = assay: NCI one dose, OVCAR-3; format: cell-based, human; conditions: OVCAR-3, 1.00E-5 Molar one dose
Method: as §1, §2

OVCAR-5 (Ovarian Cancer) = assay: NCI one dose, OVCAR-5; format: cell-based, human; conditions: OVCAR-5, 1.00E-5 Molar one dose
Method: as §1, §2

SK-OV-3 (Ovarian Cancer) = assay: NCI one dose, SK-OV-3; format: cell-based, human; conditions: SK-OV-3, 1.00E-5 Molar one dose
Method: as §1, §2

ACHN (Renal Cancer) = assay: NCI one dose, ACHN; format: cell-based, human; conditions: 1.00E-5 Molar one dose
Method: as §1, §2

SN12C (Renal Cancer) = assay: NCI one dose, SN12C; format: cell-based, human; conditions: 1.00E-5 Molar one dose
Method: as §1, §2

TK-10 (Renal Cancer) = assay: NCI one dose, TK-10; format: cell-based, human; conditions: TK-10, 1.00E-5 Molar one dose
Method: as §1, §2

BT-549 (Breast Cancer) = assay: NCI one dose, BT-549; format: cell-based, human; conditions: BT-549, 1.00E-5 Molar one dose
Method: as §1, §2

[5] = test system: MDA-MB-468 breast cancer cells; assay: NCI one dose, MDA-MB-468; format: cell-based, human; conditions: MDA-MB-468, 1.00E-5 Molar one dose
Method: as §1, §2

Structure (SMILES)	Delta (One Dose Mean Graph) [2]	Range (One Dose Mean Graph) [2]	Mean Growth Percent [2] [%]	Growth Percent (MOLT-4 (Leukemia)) [%]	Growth Percent [3] [%]	inhibition at 10 µM [4] [%]	Growth Percent [4] [%]	Growth Percent (HCT-15 (Colon Cancer)) [%]	Growth Percent (HT29 (Colon Cancer)) [%]	Growth Percent (SF-539 (CNS Cancer)) [%]	Growth Percent (SNB-19 (CNS Cancer)) [%]	Growth Percent (SK-MEL-5 (Melanoma)) [%]	Growth Percent (UACC-257 melanoma cells) [%]	Growth Percent (UACC-62 (Melanoma)) [%]	Growth Percent (OVCAR-3 (Ovarian Cancer)) [%]	Growth Percent (OVCAR-5 (Ovarian Cancer)) [%]	Growth Percent (SK-OV-3 (Ovarian Cancer)) [%]	Growth Percent (ACHN (Renal Cancer)) [%]	Growth Percent (SN12C (Renal Cancer)) [%]	Growth Percent (TK-10 (Renal Cancer)) [%]	other results
COc1ccc(CNC(=O)[C@@H]2CS[C@H]3c4ccccc4C(=O)N23)cc1 [4aF]	26.11	46.82	101.29	97.28	94.33	13	87.40	100.29	103.88	107.51	90.14	110.95	97.39	91.16	106.29	95.48	99.01	95.49	110.21	105.25	IC50 [1]: 2730 nM; % FTI [1]: 80%; Growth Percent (BT-549 (Breast Cancer)): 103.55%; Growth Percent [5]: 122.00%
COc1cc(CNC(=O)[C@@H]2CS[C@H]3c4ccccc4C(=O)N23)cc(OC)c1OC [4aJ]	15.66	30.62	98.66	90.32	94.96	17	83.00	107.89	103.83	89.92	92.64	107.99	98.86	92.01	105.82	94.62	93.11	100.59	99.01	103.10	% FTI [1]: 23%; Growth Percent (BT-549 (Breast Cancer)): 92.77%; Growth Percent [5]: 91.25%
O=C(NCc1cccc(C(F)(F)F)c1)[C@@H]1CS[C@H]2c3ccccc3C(=O)N12 [4aD]	22.37	46.64	97.10	86.93	85.91	25	74.73	100.16	91.88	101.49	95.15	110.95	89.32	89.84	104.21	97.67	88.01	101.09	98.14	117.52	% FTI [1]: 37%; Growth Percent (BT-549 (Breast Cancer)): 92.70%; Growth Percent [5]: 98.77%
O=C(NCc1ccc(Cl)cc1Cl)[C@@H]1CS[C@H]2c3ccccc3C(=O)N12 [4aH]	24.18	40.81	97.15	79.54	97.52	27	72.97	102.53	96.30	106.56	97.06	109.91	96.52	85.33	107.79	104.58	103.37	99.60	98.06	103.48	% FTI [1]: 52%; Growth Percent (BT-549 (Breast Cancer)): 97.76%; Growth Percent [5]: 91.86%
O=C(NCc1ccccc1C(F)(F)F)[C@@H]1CS[C@H]2c3ccccc3C(=O)N12 [4aC]	21.44	40.62	96.28	85.46	87.37	22	78.18	103.73	91.65	95.88	95.80	107.31	86.31	88.82	106.48	83.18	85.91	99.65	101.45	108.86	IC50 [1]: 594 nM; % FTI [1]: 62%; Growth Percent (BT-549 (Breast Cancer)): 96.07%; Growth Percent [5]: 112.27%
O=C(NCc1ccccc1)[C@@H]1CS[C@H]2c3ccccc3C(=O)N12 [4aA]	20.43	35.31	99.75	95.69	97.31	13	79.32	103.68	99.44	102.43	96.70	114.63	96.60	97.72	112.79	91.72	102.04	102.35	98.99	96.56	Growth Percent (BT-549 (Breast Cancer)): 93.57%; Growth Percent [5]: 105.86%
